Results from patent US12133836B2, “Reduction of adipose tissue” (10XBIO, LLC, priority 2015, dated 2024).

Tests used:
fat tissue = assay: Co-solvent injected with polidocanol (tolerability, uniformity of fat necrosis); type: in vivo; details: as co-solvent
skin tissue = assay: Skin adverse events (skin necrosis) after subcutaneous injection into the inguinal fat pad; type: in vivo, LVG Syrian Golden Hamsters
Text: (§1) Model: The inguinal fat pads were used as a model tissue. In the golden hamster, these subcutaneous fat pads lying bilaterally in the inguinal region were continuous with fat pads located laterally on each respective flank, and thus were referenced here as inguinal-lateral fat pads or ILFPs. The length of each fat pad offered the opportunity for two injections spaced approximately […] within each fat pad, and similarly placed control injections in the contralateral fat pad of the same animal. The unilateral experimental treatment in this model offered the advantage of paired comparison of treated and non-treated fat pads within individual animals, and served as a model to assess lipolytic effects of test compounds.
(§2) Test Articles: Polidocanol: Solutions provided by Advantar (or other), 0.5%, 1.25%, and 2.0%, formulated with propylene glycol.
(§3) Treatment: Under isoflurane anesthesia, the right ILFP was injected with 0.2 cc of drug solution at two sites (medial and lateral portions of the ILFP), spaced 0.5 cm apart. The left ILFP was injected in medial and lateral sites with filtered vehicle control solution. A total of 36 animals were divided into three dose groups, outlined in the following table:
(§4) The animals were injected percutaneously with 0.2 mL/injection of test article solution at up to four (4) sites (in the medial, central, and lateral portions of the ILFP) running superiorly to caudally, spaced 0.5 cm apart. The injections were carried out by inserting the needle into the right inguinal region, locating the tip of the needle in the middle of the fat pad between the peritoneal wall and the right leg. In hamsters, the fat could be roughly visualized as a light area beneath the skin. The tip of the needle was at a depth adequate to enter the inguinal fat (as discerned by the thickness of tissue when the needle tip is raised slightly upward while in its final position) while avoiding the leg muscle and the peritoneum. The needle tip was placed approximately 0.5 cm medial to a line drawn from the patella of the knee to the xyphoid appendix of the sternum.

[1] = system: inguinal-lateral fat pad (ILFP); assay: Effect of polidocanol on the inguinal-lateral fat pad (ILFP) of hamsters: fat weight analysis; type: in vivo, LVG Syrian Golden Hamsters
Text: Concentration of polidocanol solutions: 0.5%, 1.25% and 2%; Deoxycholate dose concentration: 1.0%
Species: LVG Syrian Golden Hamsters, retired breeders
Body weight: 165-187 grams (on first day of treatment period); Sex: Male; Vendor: Charles River; Diet: Standard lab chow; Randomization: Animals were grouped so that the mean body weights are approximately equal among the treatment subgroups
as §1, §2, §3
Harvesting: On day 28 (injections at Day 0) and 56 (injections at Day 0 and Day 28), the animals were sacrificed and the ILFPs excised and weighed (see “INGUINAL/LATERAL FAT PAD HARVESTING PROCEDURE,” below). Medial and lateral portions of each ILFP were weighed together. After weighing, each portion was frozen separately on dry ice and stored frozen for histological analysis.
Fat weight analysis: Results were expressed primarily as the mean difference between the right and left ILFPs in grams (A R-L) and as the percent difference (A R-L %). Statistical analysis was performed.
as §4
With the animal lying ventral side up, skin was cut along abdominal midline from the umbilicus to a point caudal to the penis near the bottom of the scrotum. The skin was cut from the penile area in a posterior and lateral direction toward the posterior of the hindlimb. […] An elipse was harvested of skin overlying the region of the ILFP, and placed in formalin for storage and. […]

adipose tissue = assay: Histological analysis of treated adipose tissue (H&E); type: in vivo, LVG Syrian Golden Hamsters; details: H&E stained sections
Description: Histological analysis: The right (polidocanol treated) medial injection sites of all six subjects, and one left (saline treated) site from each treatment group (animals #3 and #5), were analyzed histologically to determine evidence of necrosis within the adipose tissue. The selected samples were sectioned at a thickness of 20 microns taken at intervals of 0.5 mm through the tissue. The sections were mounted and stained with H&E and examined microscopically for evidence of necrosis or inflammation. Representative images of each tissue were recorded with a Carl Zeiss color camera.
In addition, there is a lymphomononuclear inflammatory infiltrate with macrophage phagocytosis of lipid cell debris.

CC(O)CO (centres unmarked) [propylene glycol, propane-1,2-diol]
irritation when injected with polidocanol (fat tissue): non-irritating
patchy and incomplete fat tissue necrosis (fat tissue; relative to the absence of co-solvent): reduced amount of patchy and incomplete fat tissue necrosis

deoxycholate
animals that developed severe skin necrosis (skin tissue; 1% deoxycholate (3 of 5 animals)): 60%
skin necrosis side effect, number of animals (skin tissue; Deoxycholate 1%, Group 4 (FIG. 8C)): 3 of 5

polidocanol
visible change in inguinal fat pad fullness / inguinal crease (body contour) ([1]; FIG. 5A-5B): externally visible reduction in inguinal fat pad fullness
reductions in inguinal fat pad mass ([1]; polidocanol 0.5%, day 28 after a single treatment, formulated with propylene glycol): 15%
reductions in inguinal fat pad mass ([1]; polidocanol 1.25%, day 28 after a single treatment, formulated with propylene glycol): 15%
fat pad mass reductions ([1]; polidocanol 2.0%, day 28 after a single treatment, formulated with propylene glycol): 10%
reductions in fat pad mass relative to deoxycholate ([1]; same optimized dosing frequency, volume, and injection spacing (FIG. 3)): at least equivalent to deoxycholate
skin necrosis (proportion of animals) (skin tissue; 2% polidocanol): 33%
selectivity for fat tissue relative to skin tissue (skin tissue; FIG. 6): selectively destroys fat tissue relative to skin tissue
skin necrosis side effect, number of animals (skin tissue; Polidocanol 1.25%, Group 2A, moderate skin necrosis (FIG. 8A)): 1 of 9
skin necrosis side effect, number of animals (skin tissue; Polidocanol 2%, Group 3B, moderate skin necrosis (FIG. 8B)): 2 animals
side effects such as skin necrosis, inflammation, large subcutaneous fat droplets (skin tissue; polidocanol concentration greater than about 1.25%): higher proportion of side effects
animals with mild skin breakdown (skin tissue; polidocanol injection at 0.5% (1 of 9 animals)): 11%
animals with mild skin breakdown (skin tissue; polidocanol injection at 1.25% (1 of 9 animals)): 11%
histopathology of treated adipose tissue (adipose tissue): dose dependent changes of fat cell necrosis and apoptosis
